Laboratory results from patent US20060263355A1, “Treatment of bone disorders” (priority 2005, published 2006).

Experiments:
[1] = system: serological markers of inflammation and bone turnover; assay: Serum biochemical markers in RA patients, Phase IIa study of rituximab; assay type: in vivo, human; details: week 24 vs baseline, n = 40
Procedure: Serum samples were analyzed from RA+ patients who received either methotrexate (MTX) alone or MTX in combination with a single course of rituximab as part of a Phase IIa study of rituximab in RA to be reported elsewhere. The following markers were measured at baseline and Week 24: anti-CCP, CRP, S100, SAA, PINP and Osteocalcin (OC).
Biomarker data were analyzed using a non-parametric approach by comparing the percentage changes at 24-weeks from baseline in MTX group with the RTX+MTX group. The median percent change from baseline was plotted using the following formula: Pcfb1(marker)=((slope—lr*study time at last visit)/intercept—lr)*100
where slope_lr=slope of linear regression for each patient • intercept_lr=intercept of linear regression for each patient.

[2] = ACR50 clinical response in RA, Phase IIa study of rituximab; assay type: in vivo, human; details: two infusions of rituximab two weeks apart with ongoing MTX, versus MTX alone
[3] = cited from earlier work; for effect in rat adjuvant / experimental arthritis: in vivo
[4] = Periodontal disease model (Example 5); assay type: in vivo; details: applied to the periodontal pocket
Procedure: Rituximab may be used to regenerate bone and ligament lost to periodontal disease. In this model teeth showing 20% to 80% reduction of surrounding jaw bone are scaled, then a full-thickness gingival flap is made by an incision to expose the jaw bone and tooth root. The root is planed to remove bacterial plaque and calculus. Rituximab is applied to the periodontal pocket in a 2.5% HPMC gel at a dose of […] per tooth, or alternatively a solution of rituximab in 100 mM sodium acetate buffer, pH 6.0 is added to powdered bone to provide a dosage of […] rituximab per tooth. The material is thoroughly mixed and applied to the exposed periodontal pocket. In both cases, the gingival flap is then closed and held in place by suturing.

[5] = system: serological markers of inflammation and bone turnover; assay: Serum biochemical markers in RA patients, Phase IIa study of rituximab; assay type: in vivo, human; details: RA patients treated with rituximab
B cells = details: cynomolgus monkey; cited from earlier work
[6] = pH 5; cited from earlier work
[7] = in vivo; cited from earlier work
[8] = in vivo; cited from earlier work; remark: listed apart in the source
lymphoid B-cell lines = details: cited from earlier work
[9] = Bone remodeling in animals (Example 2); details: rats, subcutaneously once per day for 35 days
[10] = system: TRAP-positive osteoclasts; assay: TRAP assay, osteoclasts formed in vitro (Example 4)
Procedure: TRAP refers to tartrate-resistant acid phosphatase that identifies osteoclast-like cells.
In this test, naphthol AS-MX phosphate 5 mg (Sigma, St. Louis, Mo.) is resolved in 0.5 ml of N,N-dimethylformamide (Wako). Thirty milligrams of fast red violet LB salt (Sigma) and 50 ml of 0.1 M sodium acetate buffer (pH 5.0) containing 50 mM sodium tartrate are added to the mixture (the TRAP-staining solution). Cells are fixed with 3.7% (v/v) formaldehyde in Ca^2− and Mg^2+-free phosphate-buffered saline for 10 min, fixed again with ethanol-acetone (50:50, v:v) for 1 min, and incubated with the TRAP-staining solution for 10 min. at room temperature. TRAP-positive osteoclasts appear as red cells. The incubation period should not exceed 10 min. since cells other than osteoclasts become weakly positive with time. After staining, cells are washed with distilled water, and TRAP-positive multinucleated cells having three or more nuclei are counted as osteoclasts under a microscope (Nicholson et al., J. Clin. Invest. 78: 355 (1986)).

With “Rituximab + MTX: MTX in combination with a single course of rituximab” the “Anti-CCP (anti-citrullinated peptide antibody), median % change from baseline at 24 weeks” value [1] was −45.78%, the “CRP (C-reactive protein), median % change from baseline at 24 weeks” value [1] was −59.07% and the “OC (osteocalcin), median % change from baseline at 24 weeks” value [1] was 28.76%. For the same compound, the “P-1NP (procollagen type 1 N-terminal propeptide), median % change from baseline at 24 weeks” value [1] was 13.64%, the “S100 (S100 A8/9), median % change from baseline at 24 weeks” value [1] was −52.73% and the “SAA (serum amyloid A), median % change from baseline at 24 weeks” value [1] was −77.02%. The “ACR50 response at 24 weeks” value [2] was “significantly higher clinical responses”.
In the case of O=P(O)(O)C(O)(Cn1ccnc1)P(=O)(O)O [Zoledronate], the “effect in rat adjuvant / experimental arthritis” value [3] is given as “protects against meta hyseal intracortical defets”.
With CN(Cc1cnc2nc(N)nc(N)c2n1)c1ccc(C(=O)N[C@@H](CCC(=O)O)C(=O)O)cc1 [MTX, methotrexate] the “Anti-CCP (anti-citrullinated peptide antibody), median % change from baseline at 24 weeks” value [1] was −21.03%, the “CRP (C-reactive protein), median % change from baseline at 24 weeks” value [1] was −22.21% and the “OC (osteocalcin), median % change from baseline at 24 weeks” value [1] was 1.94%. The “P-1NP (procollagen type 1 N-terminal propeptide), median % change from baseline at 24 weeks” value [1] was −11.78%, the “S100 (S100 A8/9), median % change from baseline at 24 weeks” value [1] was −14.31% and the “SAA (serum amyloid A), median % change from baseline at 24 weeks” value [1] was −10.55%.
For CC(O)(P(=O)(O)O)P(=O)(O)O [etridronate], the “effect in rat adjuvant / experimental arthritis” value [3] is listed as “decrease weight loss, pedal inflammation, and bone resorption”.
For O=P(O)(O)C(Cl)(Cl)P(=O)(O)O [clodronate], the “effect in arthritis study at 20 mg/kg/day iv infusion” value ([3]; 20 mg/kg/day iv infusion) is given as “decreases pedal inflammation and bone resorption, but also inhibits bone formation” and the “effect in rat adjuvant / experimental arthritis” value [3] is given as “decrease weight loss, pedal inflammation, and bone resorption”.
In the case of O=P(O)(O)C(O)(Cc1cccnc1)P(=O)(O)O [NE58095], the “effect in rat adjuvant / experimental arthritis” value [3] is given as “prevents bone erosion and preserves joint architecture”.
In the case of rituximab, the “regeneration of surrounding jaw bone versus placebo” value [4] is given as “at least partially regenerated”, the Total immunoglobulin levels [5] is given as “not affected significantly” and the “B-cell depletion in vivo” value (B cells) is given as “depletes B cells from the peripheral blood, lymph nodes, and bone marrow”. The minimum shelf life [6] was “two”, the “patients experiencing at least one adverse event during their first infusion” value [7] was 36% and the “patients admitted to the hospital for overnight observation after moderate fever and rigors following the first infusion” value [8] was 1 of 10. For the same compound, the “complement-dependent cytotoxicity (CDC)” value (lymphoid B-cell lines) was “lyses lymphoid B-cell lines”, the “bone remodeling versus controls” value [9] was “effective in enhancing bone remodeling over the controls” and the “performance as positive control in TRAP assay” value [10] was “effective as a positive control”.
In the case of “humanized 2H7: humanized CD20 antibody, or antigen-binding fragment, comprising at least CDR H3 of SEQ ID NO:12 and human VHIII framework”, the “regeneration of surrounding jaw bone versus placebo” value [4] is reported as “at least partially regenerated”, the “bone remodeling versus controls” value [9] is reported as “effective in enhancing bone remodeling over the controls” and the “performance as positive control in TRAP assay” value [10] is reported as “effective as a positive control”.
